{"source": "patent EP0569777A2", "about": "(Bayer Corporation, priority 1992, dated 1993)", "key": {"[1]": {"system": "human brain P-2 derived aprotinin binding pool Y protease (chymotryptic-like serine protease)", "test": "Immunoblot assay of APP degradation by the pool Y serine protease", "type": "biochemical", "conditions": "pool Y 14 ug/ml, APP 35 nM", "procedure": "Reactions were initiated at 37°C by enzyme addition to achieve the following initial component concentrations in a 16 ul volume: pool Y # 3-5 (14 ug/ml) after purification on a superdex 75 column, APP (35 nM), in 30 mM Mes buffer pH 6.5. Reactions were terminated by addition of 7.5 ul of 3X sample buffer. Immunoblots were developed using the rabbit antiserum to the APP C-terminal domain according to example 8. […] The following controls were also run: no inhibitor (lane 12), ethanol (lane 3), methanol (lane 5), pool Y only (lane 2), APP only at time zero (lane 13) and 4 hr (lane 14). Lanes 1 and 7 respectively show prestained Mr markers and the C-100 standard. Panel (b) 1.8 uM alpha-1-antichymotrypsin (lane 2), 156 uM TLCK (lane 3), 46 uM chymotrypsin inhibitor I (lane 4), 119 uM chymotrypsin inhibitor II (lane 5), 4 uM alpha-2-antiplasmin (lane 6), 51 uM alpha-1-antitrypsin (lane 7), 98 uM chymostatin administered in DMSO (lane 10), 153 uM methanolic TPCK (lane 12). Controls included: no inhibitor (lane 8), DMSO (lane 11), and methanol (lane 13). Pre-stained molecular weight markers and C-100 standards were applied to lanes 1 and 9 respectively. Incubation times of 4 and 2 hr were used in panels a) and b) respectively.\n• i) Sub-cellular fractionation. This was performed essentially as described in Method 1, above. • ii) Solubilization. This was performed essentially as described in Method 1, above. • iii) Aprotinin-sepharose chromatography. Soluble (230 mg), P-2 (216 mg) or microsomal fraction (47 mg) described above was applied to a column of aprotinin sepharose (Sigma, catalog # 42268, 1.5 X 10 cm), previously equilibrated with 20 mM Tris HCl buffer pH 7.0. Once loaded the column was washed with equilibration buffer (100 ml), and then eluted with 60 ml of 50 mM sodium acetate buffer pH 5.0 containing 500 mM sodium chloride. The flow rate was 1.0 ml/min throughout. Eluted fractions (4 ml) were monitored at 280 nm, analysed using the Bradford protein assay, and examined for APP C-terminal processing activity as described in Example 8, using recombinant APP derived by expression in a baculo virus system. […] Active fractions from the purification of the P-2 fraction on aprotinin-sepharose were pooled, dialyzed against 50 mM Tris-HCl pH 7.5 and applied to a mono-Q column (HR 5/5), previously equilibrated with dialysis buffer. Once loaded, the column was eluted essentially as described in Method 1. above. Active fractions (2 ml), were monitored for A 280 nm, total protein (Bradford assay), and for their capacity for baculo virus derived APP C-terminal processing. […] Pools X, Y, and Z were each concentrated to either 2 ml (pool X and Y) or 3.6 ml (pool z) and separately applied to a Superdex 75 column (Pharmacia, Piscataway NJ.) previously equilibrated with 50 mM Tris-HCl pH 7.5, containing 150 mM sodium chloride. Once loaded, the column was eluted with equilibration buffer. Chromatography was performed at a flow rate of 1.0 ml/min throughout. Fractions (1 ml) were monitored for A 280 nm, total protein (Bradford assay) and for C-terminal processing of baculo expressed APP. The gel filtration was calibrated by chromatography of each of the following standard proteins: Thyroglobulin (670 kDa), bovine gamma globulin (158 kDa), ovalbumin (44 kDa), myoglobin (17.5 kDa) and vitamin B 12 (1.35 kDa)."}, "[2]": {"system": "C286.8A", "test": "Competitive EIA, peptide epitope mapping of monoclonal antibody C286.8A", "type": "binding, Murine", "conditions": "Figure 4; plates coated with 50 ng of synthetic APP 695 (597-638); C286.8A (80 ng of IgG) preincubated 60 min at room temperature with competitor peptide", "quoted_text": "Following incubation for 60 min at room temperature, plates were washed, and the amount of bound antibody determined by development with horseradish peroxidase-coupled goat-anti mouse polyclonal antibody according to standard procedures (Wunderlich et al., 1992, J. of Immunol. Methods 147:1). Percent competition (% C) of antibody binding to the plate was calculated from the absorbance at 450 nm data using the following equation: % C = 1.0 -(O.D. (+ competitor) - O.D. blank)/(O.D. (- competitor) - O.D. blank)X 100 [formula]"}, "[3]": {"system": "human AD brain fraction P2 VII APP degrading activity", "test": "Immunoblot assay of APP 695 degradation by Mono-Q pool P2 VII", "type": "biochemical", "conditions": "trial A, PMSF 0.8mM, pH 6.5, 24 hrs, 37°C", "quoted_text": "ii) Solubilization. The membranous control or AD subfractions (P-2 or M) were solubilized by adjusting to the following conditions: 2% (v/v) Triton X-100 containing 50 mM Tris HCl buffer, pH 7.5. After stirring at 4°C for 3.5 hrs, the suspensions were centrifuged at 105,000 g x 60 min in a Beckman 70 Ti rotor. The following final protein concentrations were used in solubilization, for P-2 (3.9 to 4.0 mg/ml); and for M (1.4 to 1.6 mg/ml). Solubilized supernatants were stored at -70°C for later use. The soluble fraction was not treated with detergent but rather was adjusted to 50 mM in Tris HCl, pH 7.5, by the addition of stock 1M buffer. iii) Ion-exchange chromatography. Chromatography was performed using a Gilson gradient liquid chromatograph (model 305 and 306 pumps) equipped with a 50 ml Rheodyne stainless steel loop injector model 7125, and connected to a Mono Q HR 10/10 column (Pharmacia, Piscataway, NJ). Absorbance of column effluent was monitored at 280 nm using a Pharmacia UV-M detector and a Kippen-zonen chart recorder. […] In the initial studies, eluted fractions were monitored for A280 nm, total protein (Bradford assay), and peptidase activity (as decsribed in Examples 2 and 3). […] Fractions were monitored for A 280 nm, total protein (Bradford assay), peptidase activity, and activity for C-terminal processing of recombinant APP. […]"}, "[4]": {"system": "P-2 peak B enzyme", "test": "P-2 peak B enzyme (7.5 ug/ml), sodium chloride (75 mM), 135 mM in each of tris, Mes and acetate buffer pH 5.0", "conditions": "human, 37 C"}, "[5]": {"system": "P-2 enzyme (peak B)", "test": "P-2 enzyme (peak B) further purified on Superose 6HR (17.5 ug/ml) in acetate, Mes and Tris pH 5.0", "conditions": "human, 37 C, up to 24hr"}, "[6]": {"system": "cathepsin D (human liver, Cal Biochem)", "test": "Cathepsin D (2.8 ug/ml) in cocktail buffer 130 mM in each of acetate, Mes and Tris pH 5.0", "conditions": "37 C, up to 24hr"}, "[7]": {"system": "cathepsin D", "test": "Cathepsin D (2.5 ug/ml), sodium chloride (75 mM), 135 mM in each of tris, Mes and acetate buffer pH 5.0", "conditions": "human, 37 C"}, "[8]": {"test": "Mono-Q ion-exchange fractions of P-2, S and M subfractions of control and AD human cortex", "conditions": "37°C, up to 24 hrs"}}, "note": "“Also recorded” adds a separate entry of the source."}
{"compound": "Cc1ccc(S(=O)(=O)N[C@@H](Cc2ccccc2)C(=O)CCl)cc1", "note": "[TPCK]", "values": [{"measurement": "Inhibitor sensitivity of the pool Y protease (APP degradation)", "setting": "[1]; 153 uM methanolic TPCK, Mes pH 6.5, 2 hr, Figure 18b", "result": "strongly inhibited"}]}
{"compound": "APP 621-631: Synthetic peptide, amino acids 621-631 of human APP695; beta-amyloid peptide sequence 25-35 (WHSFGADSVPA; isoform APP695; UniProt P05067 621-631, looked up, fragment)", "values": [{"measurement": "ability to block binding of C286.8A to APP 597-638", "setting": "[2]", "result": "did not inhibit binding"}]}
{"compound": "APP 597-612: Synthetic peptide containing amino acids 597-612 of human APP695; amino acids 1-16 of the beta-amyloid sequence (LTETKTTVELLPVNGE; isoform APP695; UniProt P05067 597-612, looked up, fragment)", "values": [{"measurement": "ability to block binding of C286.8A to APP 597-638", "setting": "[2]", "result": "able to inhibit C286.8A binding in a dose-dependent fashion"}]}
{"compound": "N=C(N)c1ccccc1", "note": "[benzamidine]", "values": [{"measurement": "Inhibitor sensitivity of the pool Y protease (APP degradation)", "setting": "[1]; 5 mM benzamidine, Mes pH 6.5, 4 hr, Figure 18a", "result": "without effect"}]}
{"compound": "APP 645-695: Synthetic peptide, amino acids 645-695 of human APP695, C-terminal domain, devoid of any beta-amyloid sequence (AADRGLTTRPGSGLTNIKTEEISEVKMDAEFRHDSGYEVHHQKLVFFAEDV; isoform APP695; UniProt P05067 645-695, looked up, fragment)", "values": [{"measurement": "ability to block binding of C286.8A to APP 597-638", "setting": "[2]", "result": "did not inhibit binding"}]}
{"compound": "O=S(=O)(F)Cc1ccccc1", "note": "[PMSF]", "values": [{"measurement": "Inhibitors (pH 6.5): compounds causing complete inhibition are listed", "setting": "[3]; 11.5 kDa fragment", "result": "PMSF"}, {"measurement": "Inhibitors (pH 6.5): compounds causing complete inhibition are listed", "setting": "[3]; >11.5 kDa fragment", "result": "PMSF"}, {"measurement": "Inhibitor sensitivity of the pool Y protease (APP degradation)", "setting": "[1]; 860 uM PMSF in methanol, Mes pH 6.5, 4 hr, Figure 18a", "result": "inhibited"}]}
{"compound": "N-Dansyl-Ile-Ser-Glu-Val-Lys-Met-Asp-Ala-Glu-Phe-Arg-NH2", "values": [{"measurement": "cleaved bond", "setting": "[4]", "result": "E-V and M-D"}, {"measurement": "cleaved bond", "setting": "[5]", "result": "Met-Asp, minor; also recorded: Glu-Val, major"}, {"measurement": "cleaved bond", "setting": "[6]", "result": "Glu-Val, major; also recorded: Met-Asp, minor"}, {"measurement": "cleaved bond", "setting": "[7]", "result": "E-V and M-D"}]}
{"compound": "APP 608-624: Synthetic peptide, amino acids 608-624 of human APP695; beta-amyloid peptide sequence 12-28 (PVNGEFSLDDLQPWHSF; isoform APP695; UniProt P05067 608-624, looked up, fragment)", "values": [{"measurement": "ability to block binding of C286.8A to APP 597-638", "setting": "[2]", "result": "did not inhibit binding"}]}
{"compound": "N-dansyl-Ile-Ser-Glu-Val-Lys-Met-Asp-Ala-Glu-Phe-Arg-His-Asp-Asp-Asp-Asp", "values": [{"measurement": "cleaved bond", "setting": "[8]", "result": "V-K, major and K-M and M-D and S-E and E-V"}]}
{"compound": "CC(C)CC(NC(=O)C1OC1C(=O)O)C(=O)NCCCCN=C(N)N", "note": "(stereo not shown) [E-64]", "values": [{"measurement": "Inhibitor sensitivity of the pool Y protease (APP degradation)", "setting": "[1]; 350 uM E-64, Mes pH 6.5, 4 hr, Figure 18a", "result": "unaffected"}]}
{"compound": "Cc1ccc(S(=O)(=O)N[C@@H](CCCCN)C(=O)CCl)cc1", "note": "[TLCK]", "values": [{"measurement": "Inhibitor sensitivity of the pool Y protease (APP degradation)", "setting": "[1]; 156 uM TLCK, Mes pH 6.5, 2 hr, Figure 18b", "result": "did not inhibit at all"}]}
{"compound": "CC(C)C[C@H](NC(=O)[C@@H](NC(=O)N[C@@H](Cc1ccccc1)C(=O)O)[C@@H]1CCN=C(N)N1)C(=O)N[C@H](C=O)Cc1ccccc1", "note": "[chymostatin]", "values": [{"measurement": "Inhibitor sensitivity of the pool Y protease (APP degradation)", "setting": "[1]; 98 uM chymostatin administered in DMSO, Mes pH 6.5, 2 hr, Figure 18b", "result": "Weak inhibition"}]}
{"compound": "597-624: Synthetic peptide containing amino acids 597-624 of human APP695; amino acids 1-28 of the beta-amyloid sequence (LTETKTTVELLPVNGEFSLDDLQPWHSF; isoform APP695; UniProt P05067 597-624, looked up, fragment)", "values": [{"measurement": "ability to block binding of C286.8A to APP 597-638", "setting": "[2]", "result": "able to inhibit C286.8A binding in a dose-dependent fashion"}]}
{"compound": "597-638: Synthetic peptide containing amino acids 597-638 of human APP695; amino acids 1-42 of the beta-amyloid sequence", "values": [{"measurement": "ability to block binding of C286.8A to APP 597-638", "setting": "[2]", "result": "able to inhibit C286.8A binding in a dose-dependent fashion"}]}
